Measurements from patent US20260248822A1, “METHOD AND COMPOSITION FOR THE TREATMENT OF CANCER” (IMPACT HEALTH GLOBAL LTD., priority 2023, published 2026).
Read-outs that look alike come from different tables or passages of the source.

Experiments:
4T1 cells = assay: MTT cell viability assay in 4T1 cells; assay type: cell-based, Mouse; conditions: for cancer cell viability, dose dependence: 4T1 cells, 0.5, 1, 1.5 and 2 mM, compared to the control; for cytotoxicity at 2000 µM: Mus musculus, read-out: reduction of cell viability compared to the control
Method: Mouse breast carcinoma model (4T1 cells) were cultured in the presence of taraxasterol, vitexin, sinigrin or a mixture of all these molecules, at the indicated concentrations (0.5, 1, 1.5, and 2 mM), for 48 hours. Cell viability was determined by MTT colorimetric assay, in which a yellow tetrazole is reduced to purple formazan in living cells. The resultant color was measured at 450 nm. Reduced viability of cancer cells was a marker for the efficacy of the treatment.

human lung cancer cells = conditions: cited from earlier work
human colon cancer cells = conditions: cited from earlier work
tumors = conditions: mouse, in vivo; cited from earlier work

## C=CC/C(=N/OS(=O)(=O)O)S[C@@H]1O[C@H](CO)[C@@H](O)[C@H](O)[C@H]1O [sinigrin, (Z)-N-[1-(β-D-glucopyranosylsulfanyl)but-3-en-1-ylidene] hydroxylamine-O-sulfonic acid]
4T1 cells; 48 hours
  cancer cell viability, dose dependence: reduced cancer cell viability dose dependently
4T1 cells; 4T1, 48 h
  cytotoxicity at 2000 µM: 23%
Human lung cancer cells
  apoptosis in human lung cancer cells: induces apoptosis

## C=C1CC[C@]2(C)CC[C@]3(C)[C@H](CC[C@@H]4[C@@]5(C)CC[C@H](O)C(C)(C)[C@@H]5CC[C@]43C)[C@H]2[C@@H]1C [taraxasterol, (3S,4aR,6aR,6bR,8aR,12S,12aR,12bR,14aR,14bR)-4,4,6a,6b,8a,12, 14b-heptamethyl-11-methylidenedocosahydropicen-3-ol]
4T1 cells; 48 hours
  cancer cell viability, dose dependence: reduced cancer cell viability dose dependently
4T1 cells; 4T1 cells, 2 mM, 48 hours, MTT
  cytotoxicity at 2000 µM: 29%
Human colon cancer cells
  apoptosis in human colon cancer cells: induces apoptosis
  tumor growth in human colon cancer cells: suppresses tumor growth

## O=c1cc(-c2ccc(O)cc2)oc2c([C@@H]3O[C@H](CO)[C@@H](O)[C@H](O)[C@H]3O)c(O)cc(O)c12 [vitexin, 8-(β-D-glucopyranosyl)-4′,5,7-trihydroxyflavone]
4T1 cells; 48 hours
  cancer cell viability, dose dependence: reduced cancer cell viability dose dependently
4T1 cells; 4T1 cells, 2 mM, 48 hours, MTT
  cytotoxicity at 2000 µM: 20%
Human lung cancer cells
  apoptosis in human lung cancer cells: induces apoptosis
tumors
  growth of tumors in mice: suppresses the growth of tumors
